Laboratory results: patent US7851487B2, “Use of tetrahydropyridines in the treatment of central nervous system disorders” (The Research Foundation of State University of New York, priority 2006, dated 2010)
Counter-ions that a name gives are not always drawn.

Legend:
[1] = biological target: T1, dopamine transporter (Rattus norvegicus, UniProt P23977); experiment: [125I]RTI-55 displacement at dopamine transport sites, rat striatum membranes; assay type: binding; settings: DA (IC50, nM), displacement of 10 pM [125I]RTI-55, rat striatum
T1 construct: tissue Pel-Freez, Rogers, AR; host or cells: rat striatum membranes
Procedure: (§1) For this Example, binding of at biogenic amine transporters was determined using striatum and frontal cortex dissected from frozen Sprague-Dawley rat brains (Pel-Freez, Rogers, AR). Affinities of analogs at dopamine transport sites were determined by displacement of [^125I]RTI-55 binding in membranes from rat striatum, using 0.5 mg (original wet weight) of membranes and 10 pM [^125]RTI-55. Non-specific binding was determined in the presence of 1 μM WF-23 (analog 3a). Affinities of analogs at 5-HT transport sites were determined by displacement of [^3H] paroxetine binding in membranes from rat frontal cortex, using 50 mg (original wet weight) of membranes and 0.4 nM [^3H]paroxetine. Non-specific binding was determined in the presence of 10 μM fluoxetine. Binding of analogs at norepinephrine transport sites was determined by displacement of [^3H]nisoxetine binding in membranes from rat forebrain, using 0.7 nM [^3H]nisoxetine. Non-specific binding was determined in the presence of 1 μM desipramine.
(§2) Potencies were calculated from displacement curves using 7-10 concentrations of unlabeled analogs, as analyzed by non-linear curve fitting. Because binding of tropanes at dopamine transporters is generally regarded as multiphasic,^3 potencies in inhibiting [^125I]RTI-55 binding are reported as IC50 values. For [^3H]paroxetine and [^3H]nisoxetine binding assays, Ki values were calculated using the Cheng-Prusoff equation. All data are mean values±S.E.M. of at least three separate experiments, each of which was conducted in triplicate.
(§3) The binding affinities to dopamine (DA), serotonin (5-HT), and norepinephrine (NE) transporters for the series of compounds (4) are presented in Table 1.

[2] = biological target: T2, 5-HT transporter (Rattus norvegicus, UniProt P31652); experiment: [3H]paroxetine displacement at 5-HT transport sites, rat frontal cortex membranes; assay type: binding
T2 construct: tissue Pel-Freez, Rogers, AR; host or cells: rat frontal cortex membranes
Procedure: as §1, §2, §3

[3] = biological target: T3, norepinephrine transporter (Rattus norvegicus, UniProt Q9WTR4); experiment: [3H]nisoxetine displacement at norepinephrine transport sites, rat forebrain membranes; assay type: binding; settings: NE (Ki, nM), displacement of 0.7 nM [3H]nisoxetine
T3 construct: tissue Pel-Freez, Rogers, AR; host or cells: rat forebrain membranes
Procedure: as §1, §2, §3

[4] = test system: ckr mouse; experiment: Hyperactivity and circling in ckr mice (model validation); assay type: in vivo; settings: rate of hyperactivity and circling after administration, concentrations relevant to human clinical use
Procedure: The mouse also presents lateral ventricular enlargement, which may mirror neuropathological observations in shizophrenia. […] We have further validated this model by testing risperidone, clozapine, haloperidol and pimozide in the ckr mouse. The behavioral output was assayed by measuring the rate of hyperactivity and circling after administration.

T3 sequence (Q9WTR4 1-597): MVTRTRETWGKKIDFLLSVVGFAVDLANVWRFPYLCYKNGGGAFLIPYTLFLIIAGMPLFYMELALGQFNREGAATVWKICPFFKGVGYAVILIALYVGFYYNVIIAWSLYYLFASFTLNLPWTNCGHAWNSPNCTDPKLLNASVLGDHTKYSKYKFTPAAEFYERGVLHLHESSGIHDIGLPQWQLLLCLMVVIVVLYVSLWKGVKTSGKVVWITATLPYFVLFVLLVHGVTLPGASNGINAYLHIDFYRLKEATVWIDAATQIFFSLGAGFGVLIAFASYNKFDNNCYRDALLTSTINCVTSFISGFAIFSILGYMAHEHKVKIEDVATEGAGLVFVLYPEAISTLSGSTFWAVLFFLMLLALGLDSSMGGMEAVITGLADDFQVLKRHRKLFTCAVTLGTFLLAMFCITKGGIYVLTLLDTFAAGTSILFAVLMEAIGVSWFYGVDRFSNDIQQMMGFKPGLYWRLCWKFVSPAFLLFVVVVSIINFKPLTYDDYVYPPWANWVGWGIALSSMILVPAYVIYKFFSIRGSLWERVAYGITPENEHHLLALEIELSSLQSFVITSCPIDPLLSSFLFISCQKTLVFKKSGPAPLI
T1 sequence (P23977 whole entry): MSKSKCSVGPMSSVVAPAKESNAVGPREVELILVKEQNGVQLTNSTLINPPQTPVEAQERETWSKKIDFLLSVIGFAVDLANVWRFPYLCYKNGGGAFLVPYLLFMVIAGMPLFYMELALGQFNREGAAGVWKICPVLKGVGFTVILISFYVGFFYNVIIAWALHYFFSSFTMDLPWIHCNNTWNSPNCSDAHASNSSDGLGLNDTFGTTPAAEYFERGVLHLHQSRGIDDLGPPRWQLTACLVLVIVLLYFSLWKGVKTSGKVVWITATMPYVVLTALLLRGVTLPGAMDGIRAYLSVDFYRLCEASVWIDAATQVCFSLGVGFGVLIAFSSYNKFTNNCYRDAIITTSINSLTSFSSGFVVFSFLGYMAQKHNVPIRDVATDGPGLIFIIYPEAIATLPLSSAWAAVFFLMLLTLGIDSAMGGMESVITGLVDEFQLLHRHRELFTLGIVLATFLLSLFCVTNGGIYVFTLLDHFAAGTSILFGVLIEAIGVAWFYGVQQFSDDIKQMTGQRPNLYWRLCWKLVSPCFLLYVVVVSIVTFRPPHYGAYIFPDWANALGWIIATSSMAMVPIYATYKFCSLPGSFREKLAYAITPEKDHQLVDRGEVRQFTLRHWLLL
T2 sequence (P31652 whole entry): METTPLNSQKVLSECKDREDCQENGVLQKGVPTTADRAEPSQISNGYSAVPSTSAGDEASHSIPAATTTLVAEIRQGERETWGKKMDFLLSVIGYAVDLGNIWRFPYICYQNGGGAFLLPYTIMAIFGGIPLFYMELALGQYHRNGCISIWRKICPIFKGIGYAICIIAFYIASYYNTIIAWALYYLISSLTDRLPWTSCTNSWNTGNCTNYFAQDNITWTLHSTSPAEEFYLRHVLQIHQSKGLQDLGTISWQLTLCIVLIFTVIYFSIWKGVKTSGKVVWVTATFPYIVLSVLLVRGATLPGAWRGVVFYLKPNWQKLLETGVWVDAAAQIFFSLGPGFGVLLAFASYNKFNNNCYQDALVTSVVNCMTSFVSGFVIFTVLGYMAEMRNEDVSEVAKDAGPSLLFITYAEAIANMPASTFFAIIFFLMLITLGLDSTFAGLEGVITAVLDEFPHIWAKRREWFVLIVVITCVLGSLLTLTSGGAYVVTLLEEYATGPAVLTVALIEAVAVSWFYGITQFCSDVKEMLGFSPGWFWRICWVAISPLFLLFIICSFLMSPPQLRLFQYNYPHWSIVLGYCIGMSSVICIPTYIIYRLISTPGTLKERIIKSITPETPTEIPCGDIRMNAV

Row | SMILES | IC50 [1] | Ki [2] | Ki [3] | hyperactivity in ckr mice [4]
1 | COC(=O)C(c1ccc(Br)cc1)C1C=CCCN1 (racemic) [(±)-4b] | 6020 nM |  |  | 
2 | COC(=O)C(c1ccc(Cl)cc1)C1C=CCCN1 (racemic) [(±)-4c] | 6380 nM | > 10000 nM | 1910 nM | 
3 | COC(=O)C(c1ccc2ccccc2c1)C1C=CCCN1 (racemic) [(±)-4f] | 496 nM | 1200 nM | 1190 nM | 
4 | COC(=O)[C@H](c1ccc(Br)cc1)[C@@H]1C=CCCN1 [(2R,2′S)-4b] | 5590 nM |  |  | 
5 | COC(=O)[C@H](c1ccc(Cl)cc1)[C@@H]1C=CCCN1 [(2R,2′S)-4c] | 5030 nM | > 10000 nM | 3310 nM | 
6 | COC(=O)C(c1ccc(Cl)c(Cl)c1)C1C=CCCN1 [(2R,2′S)-4d] | 216 nM |  | 109 nM | 
7 | COC(=O)[C@H](c1ccc2ccccc2c1)[C@@H]1C=CCCN1 [(2R,2′S)-4f] | 547 nM | 608 nM | 323 nM | 
8 | COC(=O)[C@@H](c1ccc(Br)cc1)[C@H]1C=CCCN1 [(2S,2′R)-4b, (S)-Methyl 2-(4-bromophenyl)-2-((R)-1,2,5,6-tetrahydropyridin-2-yl)acetate hydrochloride] | 5340 nM |  |  | 
9 | COC(=O)[C@@H](c1ccc(Cl)cc1)[C@H]1C=CCCN1 [(2S,2′R)-4c] | 5370 nM | > 10000 nM | 391 nM | 
10 | COC(=O)C(c1ccc(Cl)c(Cl)c1)C1C=CCCN1 [(2S,2′R)-4d] | 329 nM | > 10000 nM | 193 nM | 
11 | COC(=O)[C@@H](c1ccc2ccccc2c1)[C@H]1C=CCCN1 [(2S,2′R)-4f] | 864 nM | 1960 nM | 800 nM | 
12 | O=C(CCCN1CCC(O)(c2ccc(Cl)cc2)CC1)c1ccc(F)cc1 [haloperidol] |  |  |  | dose-dependent attenuation of hyperactivity
13 | Cc1nc2n(c(=O)c1CCN1CCC(c3noc4cc(F)ccc34)CC1)CCCC2 [risperidone] |  |  |  | dose-dependent attenuation of hyperactivity
